Assay results from PubChem BioAssay (NCI).
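48-hour exposure; five concentrations; linearly interpolated endpoints. GI50 = concentration required for 50% inhibition of growth. At the TGI there is no net growth.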

Assays:
Experiment in all cases: NCI-60 cell line screen, 48 h
HOP-62 NSCLC = test system: HOP-62 NSCLC
KM12 colon = test system: KM12 colon
NCI-H226 lung = test system: NCI-H226 lung
OVCAR-5 ovarian = test system: OVCAR-5 ovarian
RPMI-8226 leukemia = test system: RPMI-8226 leukemia
SF-268 CNS = test system: SF-268 CNS
SK-MEL-28 melanoma = test system: SK-MEL-28 melanoma
SK-MEL-5 melanoma = test system: SK-MEL-5 melanoma
SR leukemia = test system: SR leukemia
UACC-62 melanoma = test system: UACC-62 melanoma

SMILES | GI50 (HOP-62 NSCLC) [µM] | TGI (HOP-62 NSCLC) [µM] | GI50 (KM12 colon) [µM] | TGI (KM12 colon) [µM] | GI50 (NCI-H226 lung) [µM] | TGI (NCI-H226 lung) [µM] | GI50 (OVCAR-5 ovarian) [µM] | TGI (OVCAR-5 ovarian) [µM] | GI50 (RPMI-8226 leukemia) [µM] | TGI (RPMI-8226 leukemia) [µM] | GI50 (SF-268 CNS) [µM] | TGI (SF-268 CNS) [µM] | GI50 (SK-MEL-28 melanoma) [µM] | TGI (SK-MEL-28 melanoma) [µM] | GI50 (SK-MEL-5 melanoma) [µM] | TGI (SK-MEL-5 melanoma) [µM] | GI50 (SR leukemia) [µM] | TGI (SR leukemia) [µM] | GI50 (UACC-62 melanoma) [µM] | TGI (UACC-62 melanoma) [µM]
Cc1ccc2c(c1)nc(C(=O)c1ccco1)c(C(F)(F)F)[n+]2[O-] | > 100 | > 100 | > 100 | > 100 | > 100 | > 100 | > 100 | > 100 | 64.6 | > 100 | > 100 | > 100 | > 100 | > 100 | 1.6 | 2.94 | 64.4 | > 100 | 89.1 | > 100
COc1ccc(-n2c(SCc3cc(OC)c(OC)c(OC)c3)nc3ccc(C)cc3c2=O)c(OC)c1 | 18.8 | > 100 | 3.42 | > 100 | > 100 | > 100 | 7.93 | > 100 | 2.44 | > 100 | 7.88 | > 100 | 5.79 | > 100 | 3.39 | > 100 | 1.87 | 25.5 | 5.19 | > 100
O=C(O)c1cc2ccccc2c(O)c1O | – | 33 | – | 30.4 | – | 42.7 | – | 32.1 | – | > 76.1 | – | 32 | – | 18.1 | – | 8.18 | – | > 79 | – | 13
O=c1cccc(C#CC#C[C@H]2O[C@@H]2CO)o1 | 0.423 | 1.54 | 0.986 | 3.47 | 0.309 | 1.11 | 1.73 | 3.57 | 0.101 | 0.331 | 2.49 | 7.51 | 0.37 | 1.71 | 1.5 | 2.95 | 0.24 | > 100 | 0.209 | 0.531
OC1(C(O)(c2ccc(-c3ccccc3)cc2)c2ccc(-c3ccccc3)cc2)CCCCC1 | – | > 100 | – | > 100 | – | > 100 | – | > 100 | – | > 100 | – | > 100 | – | > 100 | – | > 100 | – | > 100 | – | > 100
CSc1nc2c(c(=O)[nH]1)N=C1c3ccccc3C(=O)C1C(c1ccc(F)cc1)N2 (stereo not given) | 11.9 | 33.7 | 3.77 | 15.6 | 15.3 | 45.6 | 17.7 | 41.1 | 4.2 | > 100 | 12.7 | 49.9 | 9.03 | 62.4 | 6.13 | 66.6 | 6.31 | > 100 | 3.04 | 48.9
N#Cc1c(C(=O)c2ccccc2)cnn1-c1ccccc1 | > 25 | > 25 | > 25 | > 25 | > 25 | > 25 | > 25 | > 25 | > 25 | > 25 | > 25 | > 25 | > 25 | > 25 | > 25 | > 25 | > 25 | > 25 | > 25 | > 25
O=C(/C=C/c1ccc(OCC(=O)N2CCN(c3ccccc3)CC2)cc1)c1ccc(Cl)cc1 | – | 55.3 | – | > 100 | – | 97.9 | – | > 100 | – | > 100 | – | > 92.7 | – | > 100 | – | > 100 | – | > 100 | – | > 95.7
